The source of these data is US20070037788A1, “Tricyclic steroid hormone nuclear receptor modulators” (Eli Lilly and Company, priority 2003, published 2007).

Counter-ions that a name gives are not always drawn. A value given as a limit tells only on which side of the number the result lay.

This assay concerns the target T1, human GR (glucocorticoid receptor) (Homo sapiens, UniProt P04150).
T1 construct: expressed in transfected cells; host or cells: 293 cells
T1 sequence (P04150 1-777): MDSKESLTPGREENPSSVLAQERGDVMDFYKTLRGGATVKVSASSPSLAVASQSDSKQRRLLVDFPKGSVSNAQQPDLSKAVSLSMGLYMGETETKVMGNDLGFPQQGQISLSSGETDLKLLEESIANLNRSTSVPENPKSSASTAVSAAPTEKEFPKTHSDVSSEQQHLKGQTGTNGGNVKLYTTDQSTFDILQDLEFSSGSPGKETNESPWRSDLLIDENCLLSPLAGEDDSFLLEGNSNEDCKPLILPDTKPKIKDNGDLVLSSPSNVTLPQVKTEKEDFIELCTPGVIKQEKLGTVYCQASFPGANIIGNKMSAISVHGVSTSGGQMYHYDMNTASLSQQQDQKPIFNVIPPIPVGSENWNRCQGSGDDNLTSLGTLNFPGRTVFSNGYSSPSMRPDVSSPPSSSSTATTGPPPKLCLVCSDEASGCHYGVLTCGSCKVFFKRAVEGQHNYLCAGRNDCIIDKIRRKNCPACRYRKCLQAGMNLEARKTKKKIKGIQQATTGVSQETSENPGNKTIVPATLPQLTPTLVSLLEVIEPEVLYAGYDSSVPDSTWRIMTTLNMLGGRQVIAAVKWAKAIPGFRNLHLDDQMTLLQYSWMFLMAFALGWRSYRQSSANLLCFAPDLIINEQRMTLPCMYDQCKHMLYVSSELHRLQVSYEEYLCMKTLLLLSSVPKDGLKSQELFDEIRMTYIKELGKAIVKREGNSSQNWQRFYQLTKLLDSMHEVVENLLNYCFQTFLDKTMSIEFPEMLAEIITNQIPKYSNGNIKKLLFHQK
As to the kind of experiment: Alternative Binding Assay Protocol (Method 2), GR. The settings on record: 293-GR lysate, 3H-dexamethasone. The procedure:
Cell lysates from 293 cells overexpressing human GR (glucocorticoid receptor), AR (androgen receptor), MR (mineralocorticoid receptor) or PR (progesterone receptor) are used for competition binding assays to determine Ki values for test compounds. Briefly, competition binding assays are run in a buffer containing 20 mM Hepes, pH 7.6, 0.2 mM EDTA, 75 mM NaCl, 1.5 mM MgCl2, 20% glycerol, 20 mM sodium molybdate, 0.2 mM DTT, 20 ug/ml aprotinin and 20 ug/ml leupeptin, using either 0.3 nM ^3H-dexamethasone for GR binding, 0.36 nM ^3H-methyltrienolone for AR binding, 0.25 nM ^3H-aldosterone for MR binding, or 0.29 nM ^3H-methyltrienolone for PR binding, and either 20 ug 293-GR lysate, 22 ug 293-AR lysate, 20 ug 293-MR lysate or 40 ug 293-PR lysate per well. Competing compounds are added at various concentrations in half-log increments. Non-specific binding is determined in the presence of 500 nM dexamethasone for GR binding, 500 nM aldosterone for MR binding, or 500 nM methyltrienolone for AR and PR binding. The binding reaction (140 μl) is incubated for overnight at 4° C., then 70 μl of cold charcoal-dextran buffer (containing per 50 ml of assay buffer, 0.75 g of charcoal and 0.25 g of dextran) is added to each reaction. Plates are mixed 8 minutes on an orbital shaker at 4° C. Plates are then centrifuged at 3,000 rpm at 4° C. for 10 minutes. An aliquot of 120 μl of the mix is transferred to another 96-well plate and 175 μl of Wallac Optiphase “Hisafe 3” scintillation fluid is added to each well. Plates are sealed and shaken vigorously on an orbital shaker. After an incubation of 2 hrs, plates are read in a Wallac Microbeta counter. The data is used to calculate an IC50 and % Inhibition at 10 μM. The Kd for ^3H-dexamethasone for GR binding, ^3H-methyltrienolone for AR binding, ^3H-aldosterone for MR binding, or ^3H-methyltrienolone for PR binding, is determined by saturation binding. The IC50 values for compounds are converted to Ki using Cheng-Prusoff equation and the Kd determined by saturation binding assay.
As for `CCN1CC[C@H](n2c(=O)[nH]c3cc(/C=C4\c5ccc(F)cc5COc5cc(F)ccc54)ccc32)C1` [Example 33], the Ki was under 500 nM.

Consider `CN1CCN(CCCn2c(=O)[nH]c3cc(/C=C4\c5ccccc5COc5cc(F)ccc54)ccc32)CC1` [Example 7], for which the Ki was under 500 nM.

`C[C@@H](CN1CCOCC1)n1c(=O)[nH]c2cc(/C=C3\c4ccccc4COc4cc(F)ccc43)ccc21` [Example 11] came in with a Ki of under 500 nM.

Regarding `O=c1[nH]c2cc(/C=C3\c4ccccc4COc4cc(F)ccc43)ccc2n1[C@H]1CCNC1` [Example 9], the Ki is under 500 nM.

In the case of `O=c1[nH]c2cc(/C=C3/c4ccc(F)cc4OCc4c(F)cccc43)ccc2n1CCN1CCCC1` [Example 35], the Ki was under 1000 nM.

For `O=c1[nH]c2cc(/C=C3\c4ccccc4COc4cc(F)ccc43)ccc2n1C1CNC1` [Example 17], the Ki was under 500 nM.

The compound `CCN1CC[C@H](n2c(=O)[nH]c3cc(/C=C4/c5ccc(F)cc5OCc5c(F)cccc54)ccc32)C1` [Example 44] showed an inhibition constant Ki of under 1000 nM.

Turning to `CN1CCC(n2c(=O)[nH]c3cc(/C=C4/c5ccc(F)cc5OCc5c(F)cccc54)ccc32)CC1` [Example 2, 5-(3,7-Difluoro-6H-dibenzo[b,e]oxepine-11-ylidenemethyl)-1-(1-methyl-piperidin-4-yl)-1,3-dihydro-benzoimidazol-2-one, E-isomer], the Ki was under 1000 nM.

`CC(C)(CN1CCOCC1)n1c(=O)[nH]c2cc(/C=C3/c4ccc(F)cc4OCc4c(F)cccc43)ccc21` [Example 40] yielded a Ki of under 1000 nM.

The compound `O=c1[nH]c2cc(/C=C3/c4ccc(F)cc4OCc4c(F)cccc43)ccc2n1C1CCNCC1` [Example 36] came in with a Ki of under 500 nM.

The compound `O=c1[nH]c2cc(/C=C3\c4ccc(F)cc4COc4cc(F)ccc43)ccc2n1C1CCNCC1` [Example 28] showed a Ki of under 500 nM.

Compound `O=c1[nH]c2cc(/C=C3\c4ccccc4COc4cc(F)ccc43)ccc2n1C[C@@H]1CCCN1` [Example 18] registered a Ki of under 1000 nM.

For the compound `O=c1[nH]c2cc(/C=C3\c4ccc(F)cc4COc4cc(F)ccc43)ccc2n1CCCN1CCOCC1` [Example 26], the Ki is under 500 nM.

`C[C@H](CN1CCOCC1)n1c(=O)[nH]c2cc(/C=C3\c4ccccc4COc4cc(F)ccc43)ccc21` [Example 10] gave a Ki of under 500 nM.

`CN1CCC(n2c(=O)[nH]c3cc(/C=C4\c5ccccc5COc5cc(F)ccc54)ccc32)CC1` [Example 3, 5-(3-Fluoro-6H-dibenzo[b,e]oxepin-11-ylidenemethyl)-1-(1-methyl-piperidin-4-yl)-1,3-dihydro-benzoimidazol-2-one, E isomer] came in with a Ki of under 500 nM.

As for `C[C@@H](CN1CCOCC1)n1c(=O)[nH]c2cc(/C=C3/c4ccc(F)cc4OCc4c(F)cccc43)ccc21` [Example 39], the Ki was under 1000 nM.

In turn, `CN1CCN(CCn2c(=O)[nH]c3cc(/C=C4\c5ccccc5COc5cc(F)ccc54)ccc32)CC1` [Example 8] yielded an inhibitory constant (Ki) of under 500 nM.

The compound `O=c1[nH]c2cc(/C=C3\c4ccccc4COc4cc(F)ccc43)ccc2n1C[C@H]1CCCN1` [Example 19] registered a Ki of under 1000 nM.

The compound `CN1CCN(CCn2c(=O)[nH]c3cc(/C=C4\c5ccc(F)cc5COc5cc(F)ccc54)ccc32)CC1` [Example 20] gave a Ki of under 500 nM.

The compound `O=c1[nH]c2cc(/C=C3\c4ccc(F)cc4COc4cc(F)ccc43)ccc2n1[C@H]1CCNC1` [Example 29] returned a Ki of under 500 nM.

On to `O=c1[nH]c2cc(/C=C3\c4ccccc4COc4cc(F)ccc43)ccc2n1C1CCNCC1` [Example 12], for which the Ki was under 1000 nM.

`O=c1[nH]c2cc(/C=C3/c4ccc(F)cc4OCc4c(F)cccc43)ccc2n1CCCN1CCOCC1` [Example 42]: the Ki is under 500 nM.

`C[C@@H]1CN(CCn2c(=O)[nH]c3cc(/C=C4\c5ccc(F)cc5COc5cc(F)ccc54)ccc32)C[C@H](C)O1` [Example 25] yielded a Ki of under 500 nM.

With `C[C@@H]1CN(CCn2c(=O)[nH]c3cc(/C=C4/c5ccc(F)cc5OCc5c(F)cccc54)ccc32)C[C@H](C)O1` [Example 41], the Ki was under 500 nM.

Compound `CCN1CC[C@@H](n2c(=O)[nH]c3cc(/C=C4/c5ccc(F)cc5OCc5c(F)cccc54)ccc32)C1` [Example 46] registered a Ki of under 1000 nM.

Regarding `O=c1[nH]c2cc(/C=C3\c4ccc(F)cc4COc4cc(F)ccc43)ccc2n1[C@@H]1CCNC1` [Example 31], the Ki is under 500 nM.

Consider `C[C@H](CN1CCOCC1)n1c(=O)[nH]c2cc(/C=C3\c4ccc(F)cc4COc4cc(F)ccc43)ccc21` [Example 22], for which the Ki was under 500 nM.

`CN1CC[C@H](n2c(=O)[nH]c3cc(/C=C4\c5ccc(F)cc5COc5cc(F)ccc54)ccc32)C1` [Example 32] yielded a Ki of under 500 nM.

`C[C@H](CN1CCOCC1)n1c(=O)[nH]c2cc(/C=C3/c4ccc(F)cc4OCc4c(F)cccc43)ccc21` [Example 38] gave a Ki of under 500 nM.

`O=c1[nH]c2cc(/C=C3\c4ccccc4COc4cc(F)ccc43)ccc2n1CCN1CCNCC1` [Example 14] showed a Ki of under 500 nM.

Take `O=c1[nH]c2cc(/C=C3\c4ccc(F)cc4COc4cc(F)ccc43)ccc2n1C1CNC1` [Example 30]: the Ki was under 500 nM.

Compound `O=c1[nH]c2cc(/C=C3\c4ccccc4COc4cc(F)ccc43)ccc2n1C1CCNC1` (stereo not shown) [Example 15] yielded an inhibition constant Ki of under 500 nM.

`C[C@@H](CN1CCOCC1)n1c(=O)[nH]c2cc(/C=C3\c4ccc(F)cc4COc4cc(F)ccc43)ccc21` [Example 23] came in with a Ki of under 1000 nM.

Regarding `C[C@@H]1CN(CCn2c(=O)[nH]c3cc(/C=C4\c5ccccc5COc5cc(F)ccc54)ccc32)C[C@H](C)O1` [Example 13], the Ki was under 500 nM.

Consider `CCN1CC[C@@H](n2c(=O)[nH]c3cc(/C=C4\c5ccc(F)cc5COc5cc(F)ccc54)ccc32)C1` [Example 5, 5-(3,8-Difluoro-6H-dibenzo[b,e]oxepin-11-ylidenemethyl)-1-(1-ethyl-pyrrolidin-3-yl) -1,3-dihydro-benzoimidazol-2-one, HOAc salt, E isomer, chiral], for which the Ki was under 500 nM.

With `CN1CCC(n2c(=O)[nH]c3cc(/C=C4\c5ccc(F)cc5COc5cc(F)ccc54)ccc32)CC1` [Example 4, 5-(3,8-Difluoro-6H-dibenzo[b,e]oxepin-11-ylidenemethyl)-1-(1-methyl-piperidin-4-yl) -1,3-dihydro-benzoimidazol-2-one, E isomer], the Ki is under 1000 nM.

Consider `CN1CCN(CCn2c(=O)[nH]c3cc(/C=C4/c5ccc(F)cc5OCc5c(F)cccc54)ccc32)CC1` [Example 34], for which the Ki was under 500 nM.

As for `O=c1[nH]c2cc(/C=C3\c4ccc(F)cc4COc4cc(F)ccc43)ccc2n1CCN1CCCC1` [Example 21], the Ki was under 500 nM.

With `CN1CC[C@H](n2c(=O)[nH]c3cc(/C=C4/c5ccc(F)cc5OCc5c(F)cccc54)ccc32)C1` [Example 45], the Ki was under 10000 nM.

On to `CC(C)(CN1CCOCC1)n1c(=O)[nH]c2cc(/C=C3\c4ccccc4COc4cc(F)ccc43)ccc21` [Example 1, 1-(1,1-Dimethyl-2-morpholin-4-yl-ethyl)-5-(3-fluoro-6H-dibenzo[b,e]oxepin-11-ylidenemethyl)-1,3-dihydro-benzoimidazol-2-one, E isomer], for which the Ki was under 1000 nM.

Take `O=c1[nH]c2cc(/C=C3/c4ccc(F)cc4OCc4c(F)cccc43)ccc2n1CCN1CCNCC1` [Example 43]: the Ki is under 500 nM.

The compound `O=c1[nH]c2cc(/C=C3\c4ccccc4COc4cc(F)ccc43)ccc2n1C1CCNC1` (stereo not shown) [Example 16] registered a Ki of under 500 nM.

`CC(C)(CN1CCOCC1)n1c(=O)[nH]c2cc(/C=C3\c4ccc(F)cc4COc4cc(F)ccc43)ccc21` [Example 24] showed a Ki of under 1000 nM.
